In PubChem BioAssay (NCI):
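Test compounds were applied to cells in 96-well plates for 48 hours at 5 doses. GI50 = concentration required for 50% inhibition of growth. TGI: total growth inhibition.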

Columns and labels:
Assay in all cases: growth of human tumour cells (NCI), 48 h
CCRF-CEM leukemia = tested on: CCRF-CEM leukemia
SNB-19 CNS = tested on: SNB-19 CNS
A498 renal = tested on: A498 renal
UACC-257 melanoma = tested on: UACC-257 melanoma
SN12C renal = tested on: SN12C renal
SF-539 CNS = tested on: SF-539 CNS
SR leukemia = tested on: SR leukemia
DU-145 prostate = tested on: DU-145 prostate
SF-295 CNS = tested on: SF-295 CNS
MDA-MB-231 breast = tested on: MDA-MB-231 breast
SK-MEL-5 melanoma = tested on: SK-MEL-5 melanoma
RXF 393 renal = tested on: RXF 393 renal
786-0 renal = tested on: 786-0 renal
OVCAR-8 ovarian = tested on: OVCAR-8 ovarian
HOP-92 NSCLC = tested on: HOP-92 NSCLC
RPMI-8226 leukemia = tested on: RPMI-8226 leukemia
NCI/ADR-RES ovarian = tested on: NCI/ADR-RES ovarian
SF-268 CNS = tested on: SF-268 CNS
SK-OV-3 ovarian = tested on: SK-OV-3 ovarian
TK-10 renal = tested on: TK-10 renal
OVCAR-5 ovarian = tested on: OVCAR-5 ovarian
HL-60(TB) leukemia = tested on: HL-60(TB) leukemia
ACHN renal = tested on: ACHN renal
MALME-3M melanoma = tested on: MALME-3M melanoma
K-562 leukemia = tested on: K-562 leukemia
EKVX NSCLC = tested on: EKVX NSCLC
MDA-MB-435 = tested on: MDA-MB-435
CAKI-1 renal = tested on: CAKI-1 renal
NCI-H522 lung = tested on: NCI-H522 lung
MCF7 breast = tested on: MCF7 breast
M14 melanoma = tested on: M14 melanoma
U251 CNS = tested on: U251 CNS
KM12 colon = tested on: KM12 colon
T-47D breast = tested on: T-47D breast
OVCAR-4 ovarian = tested on: OVCAR-4 ovarian
HS 578T breast = tested on: HS 578T breast
SK-MEL-28 melanoma = tested on: SK-MEL-28 melanoma
BT-549 breast = tested on: BT-549 breast
UACC-62 melanoma = tested on: UACC-62 melanoma
A549 NSCLC = tested on: A549 NSCLC
HOP-62 NSCLC = tested on: HOP-62 NSCLC
NCI-H226 lung = tested on: NCI-H226 lung
PC-3 prostate = tested on: PC-3 prostate
SW-620 colon = tested on: SW-620 colon
LOX IMVI melanoma = tested on: LOX IMVI melanoma
MOLT-4 leukemia = tested on: MOLT-4 leukemia
OVCAR-3 ovarian = tested on: OVCAR-3 ovarian
IGROV1 ovarian = tested on: IGROV1 ovarian
SNB-75 CNS = tested on: SNB-75 CNS
HCT-116 colon = tested on: HCT-116 colon
NCI-H23 lung = tested on: NCI-H23 lung
UO-31 renal = tested on: UO-31 renal

CSc1nc(-c2cc3ccccc3o2)cc(-c2ccc(Cl)cc2)c1C#N
GI50 (CCRF-CEM leukemia): > 100 µM
TGI (CCRF-CEM leukemia): > 100 µM
GI50 (SNB-19 CNS): 19.7 µM
TGI (SNB-19 CNS): > 76.5 µM
GI50 (A498 renal): 27 µM
TGI (A498 renal): > 100 µM
GI50 (UACC-257 melanoma): > 100 µM
TGI (UACC-257 melanoma): > 100 µM
GI50 (SN12C renal): 26.9 µM
TGI (SN12C renal): > 100 µM
GI50 (SF-539 CNS): 2.99 µM
TGI (SF-539 CNS): 14.6 µM
GI50 (SR leukemia): 28.6 µM
TGI (SR leukemia): > 100 µM
GI50 (DU-145 prostate): 3.87 µM
TGI (DU-145 prostate): > 100 µM
GI50 (SF-295 CNS): 6.17 µM
TGI (SF-295 CNS): 37.8 µM
GI50 (MDA-MB-231 breast): 3.58 µM
TGI (MDA-MB-231 breast): 50 µM
GI50 (SK-MEL-5 melanoma): > 100 µM
TGI (SK-MEL-5 melanoma): > 100 µM
GI50 (RXF 393 renal): 3.7 µM
TGI (RXF 393 renal): 20.1 µM
GI50 (786-0 renal): 7.36 µM
TGI (786-0 renal): 76.8 µM
GI50 (OVCAR-8 ovarian): 3.57 µM
TGI (OVCAR-8 ovarian): > 100 µM
GI50 (HOP-92 NSCLC): 3.4 µM
TGI (HOP-92 NSCLC): 15.2 µM
GI50 (RPMI-8226 leukemia): > 67.6 µM
TGI (RPMI-8226 leukemia): > 100 µM
GI50 (NCI/ADR-RES ovarian): 44.9 µM
TGI (NCI/ADR-RES ovarian): > 100 µM
GI50 (SF-268 CNS): 18 µM
TGI (SF-268 CNS): > 80.1 µM
GI50 (SK-OV-3 ovarian): 5.29 µM
TGI (SK-OV-3 ovarian): 56.8 µM
GI50 (TK-10 renal): 8.07 µM
TGI (TK-10 renal): 31.8 µM
GI50 (OVCAR-5 ovarian): > 84.6 µM
TGI (OVCAR-5 ovarian): > 100 µM
GI50 (HL-60(TB) leukemia): > 100 µM
TGI (HL-60(TB) leukemia): > 100 µM
GI50 (ACHN renal): 3.03 µM
TGI (ACHN renal): 67.7 µM
GI50 (MALME-3M melanoma): 20.5 µM
TGI (MALME-3M melanoma): > 100 µM
GI50 (K-562 leukemia): > 100 µM
TGI (K-562 leukemia): > 100 µM
GI50 (EKVX NSCLC): 0.918 µM
TGI (EKVX NSCLC): > 100 µM
GI50 (MDA-MB-435): > 100 µM
TGI (MDA-MB-435): > 100 µM
GI50 (CAKI-1 renal): 5.28 µM
TGI (CAKI-1 renal): > 73.4 µM
GI50 (NCI-H522 lung): 8.67 µM
TGI (NCI-H522 lung): > 100 µM
GI50 (MCF7 breast): 0.352 µM
TGI (MCF7 breast): > 100 µM
GI50 (M14 melanoma): 45.5 µM
TGI (M14 melanoma): > 100 µM
GI50 (U251 CNS): 3.76 µM
TGI (U251 CNS): 28.4 µM
GI50 (KM12 colon): > 100 µM
TGI (KM12 colon): > 100 µM
GI50 (T-47D breast): 0.93 µM
TGI (T-47D breast): > 100 µM
GI50 (OVCAR-4 ovarian): > 100 µM
TGI (OVCAR-4 ovarian): > 100 µM
GI50 (HS 578T breast): 22.2 µM
TGI (HS 578T breast): > 64.3 µM
GI50 (SK-MEL-28 melanoma): > 100 µM
TGI (SK-MEL-28 melanoma): > 100 µM
GI50 (BT-549 breast): 23.8 µM
TGI (BT-549 breast): 75.7 µM
GI50 (UACC-62 melanoma): 5.03 µM
TGI (UACC-62 melanoma): > 49.8 µM
GI50 (A549 NSCLC): 4.48 µM
TGI (A549 NSCLC): > 100 µM
GI50 (HOP-62 NSCLC): 12.7 µM
TGI (HOP-62 NSCLC): > 79.6 µM
GI50 (NCI-H226 lung): 6.28 µM
TGI (NCI-H226 lung): > 100 µM
GI50 (PC-3 prostate): 8.82 µM
TGI (PC-3 prostate): > 100 µM
GI50 (SW-620 colon): > 100 µM
TGI (SW-620 colon): > 100 µM
GI50 (LOX IMVI melanoma): 9.53 µM
TGI (LOX IMVI melanoma): > 100 µM
GI50 (MOLT-4 leukemia): > 85 µM
TGI (MOLT-4 leukemia): > 100 µM
GI50 (OVCAR-3 ovarian): 2.58 µM
TGI (OVCAR-3 ovarian): > 24.2 µM
GI50 (IGROV1 ovarian): 0.706 µM
TGI (IGROV1 ovarian): 13.4 µM
GI50 (SNB-75 CNS): 5.56 µM
TGI (SNB-75 CNS): 26.6 µM
GI50 (HCT-116 colon): 5.11 µM
TGI (HCT-116 colon): > 100 µM
GI50 (NCI-H23 lung): 9.24 µM
TGI (NCI-H23 lung): > 100 µM
GI50 (UO-31 renal): 1.73 µM
TGI (UO-31 renal): > 100 µM
